Laboratory results as given in patent publication US11466013B2 (Betta Pharmaceuticals Co., LTD, priority 2018, dated 2022).

Assays:
ERK2 = ERK2 (Homo sapiens, UniProt P28482); experiment: Kinase assay (Caliper, FAM-labeled peptide), ERK2; format: biochemical
Method: (§1) The compound was diluted to the desired concentration with DMSO, transferred 100 μL to a 96-well plate, and performed a gradient dilution 10 μL of compound from each well was taken and mixed with 90 μL of kinase buffer, and then transferred 5 μL from each well to a 384-well plate. Kinase and FAM-labeled peptide and ATP were added to 1× kinase alkaline buffer to obtain 2.5× enzyme solution and 2.5× peptide solution, 10 μL of 2.5× enzyme solution was added to the 384-well assay plate. After incubating for 10 minutes at room temperature, 10 μL of 2.5× peptide solution was added to the 384-well plate. After reacting for a specific time at […], 25 μL of termination buffer was added to stop reaction. After reading the collected data on Caliper, the data was converted to inhibition percentage. Inhibition percentage=(maximum value−conversion value)/(maximum value−minimum value)*100.
(§2) The “maximum” is the DMSO control, the “minimum” indicates the low control.
(§3) Graphpad Prism software was used to perform curve fitting and obtain IC50 value.

ERK1 = ERK1 (Homo sapiens, UniProt P27361); experiment: Kinase assay (Caliper, FAM-labeled peptide), ERK1; format: biochemical
Method: as §1, §2, §3

COLO205 cells = experiment: Cell proliferation assay (COLO205), Cell-titer Glo; format: cell-based
Method: COLO205 cells were spread into a 96-well plate at 135 μL/well at 2000 cells. After incubating overnight, compound solutions of gradient concentration was prepared, and added 15 μL of DMSO solution of the test compound of each concentration to the cells of each well. The final concentration of the compound was 30000, 10000, 3333.3, 1111.1, 370.4, 123.5, 41.2, 13.7, 4.6, 0 nM (the final concentration of DMSO was 0.5%). 5% CO2 was incubated for 120 h at 37° C. 50 μL of Cell-titer Glo working solution was added to each well, shaked and mixed, and incubated at room temperature for 10 minutes. The multi-functional microplate reader read the luminescence value, and converted the luminescence value reading into inhibition percentage. Inhibition percentage=(maximum value−reading)/(maximum value−minimum value)*100.
The “maximum value” was the DMSO control, the “minimum value” indicates the cell-free control group.
as §3

[1] = Homo sapiens, COLO 205, 120 h incubation

Chain of ERK1 (P27361 whole entry): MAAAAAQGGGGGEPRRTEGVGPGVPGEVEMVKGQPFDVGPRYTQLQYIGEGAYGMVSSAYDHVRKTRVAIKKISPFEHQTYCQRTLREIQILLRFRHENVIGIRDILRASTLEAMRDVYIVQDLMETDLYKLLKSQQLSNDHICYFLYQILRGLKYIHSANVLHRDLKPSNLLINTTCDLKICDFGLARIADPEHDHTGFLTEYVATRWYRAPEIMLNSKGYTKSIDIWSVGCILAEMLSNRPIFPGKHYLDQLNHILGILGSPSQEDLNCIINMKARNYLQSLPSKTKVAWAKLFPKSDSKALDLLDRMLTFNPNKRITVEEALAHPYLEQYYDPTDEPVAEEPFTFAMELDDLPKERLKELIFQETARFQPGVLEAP
Chain of ERK2 (P28482 whole entry): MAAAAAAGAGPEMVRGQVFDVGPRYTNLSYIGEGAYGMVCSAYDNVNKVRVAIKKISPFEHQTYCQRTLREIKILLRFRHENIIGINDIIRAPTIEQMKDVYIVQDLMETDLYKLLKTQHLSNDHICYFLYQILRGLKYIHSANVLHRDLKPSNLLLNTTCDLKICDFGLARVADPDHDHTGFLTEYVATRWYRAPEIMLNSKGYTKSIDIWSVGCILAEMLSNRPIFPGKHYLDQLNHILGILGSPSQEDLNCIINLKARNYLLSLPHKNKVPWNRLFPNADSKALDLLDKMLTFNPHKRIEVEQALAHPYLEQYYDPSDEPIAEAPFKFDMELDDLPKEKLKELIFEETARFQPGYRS

SMILES | IC50 (ERK2) [nM] | IC50 (ERK1) [nM] | IC50 (COLO205 cells; [1]) [nM] | IC50 (COLO205 cells; 120 h incubation) [nM]
CC(C)Nc1cc(-c2cnc(C(=O)NCc3cc(F)ccc3CO)s2)c(Cl)cn1 [Example 2, 5-(5-Chloro-2-(isopropylamino)pyridin-4-yl)-N-(5-fluoro-2-(hydroxymethyl)benzyl)thiazole-2-formamide] | 0.9 | 1 | 77.5 | 
COC[C@H]1Cn2cc(-c3cc(Nc4c(F)cnn4C)ncc3Cl)cc2C(=O)N1Cc1cc(F)ccc1CO [Example 51, (R)-7-(5-chloro-2-((4-fluoro-1-methyl-1H-pyrazol-5-yl)amino)pyridin-4-yl)-2-(5-fluoro-2-(hydroxymethyl)benzyl)-3-(methoxymethyl)-3,4-dihydropyrrolo[1,2-a]pyrazine-1(2H)-ketone] |  |  | 24.4 | 
COCOC[C@H]1Cn2cc(-c3cc(Nc4ccnn4C)ncc3Cl)cc2C(=O)N1Cc1cc(F)ccc1CO [Example 53, (R)-7-(5-chloro-2-((1-methyl-1H-pyrazol-5-yl)amino)pyridin-4-yl)-2-(5-fluoro-2-(hydroxymethyl)benzyl)-3-((methoxymethoxy)methyl)-3,4-dihydropyrrolo[1,2-a]pyrazine-1(2H)-ketone] |  |  | 3.9 | 
COC[C@H]1Cn2cc(-c3cc(Nc4cnn(C)c4)ncc3Cl)cc2C(=O)N1Cc1cc(F)ccc1CO [Example 88, (R)-7-(5-chloro-2-((1-methyl-1h-pyrazole-4-yl)amino)pyridine-4-yl)-2-(5-fluoro-2-(hydroxymethyl)benzyl)-3-(methoxymethyl)-3,4-dihydropyrrolo[1,2-a] pyrazine-1(2H)-one] | 1 |  | 28.8 | 
COC[C@H]1Cn2cc(-c3cc(Nc4cn(C)nc4C)ncc3Cl)cc2C(=O)N1Cc1cc(F)ccc1CO [Example 89, (R)-7-(5-chloro-2-((1,3-dimethyl-1h-pyrazole-4-yl)amino)pyridine-4-yl)-2-(5-fluoro-2-(hydroxymethyl)benzyl)-3-(methoxymethyl)-3,4-dihydropyrrolo[1,2-a] pyrazin-1(2H)-one] | 1.1 |  | 12 | 
COC[C@H]1Cn2cc(-c3cc(Nc4cc(C)nn4C)ncc3Cl)cc2C(=O)N1Cc1cc(F)ccc1CO [Example 96, (R)-7-(5-chloro-2-((1,3-dimethyl-1h-pyrazole-5-yl)amino)pyridine-4-yl)-2-(5-fluoro-2-(hydroxymethyl)benzyl)-3-(methoxymethyl)-3,4-dihydropyrrolo[1,2-a] pyrazine-1(2H)-one] | 1.8 |  | 11 | 
COC[C@H]1Cn2cc(-c3ccnc(NC(C)C)n3)cc2C(=O)N1Cc1cc(F)ccc1CO [Example 127, (R)-2-(5-fluoro-2-(hydroxymethyl)benzyl)-7-(2-(isopropylamino)pyrimidin-4-yl)-3-(methoxymethyl)-3.4-dihydropyrrolo[1,2-a] pyrazine-1(2H)-one] | 0.35 | 1.6 |  | 
O=C1c2cc(-c3cc(NC4CC(F)(F)C4)ncc3Cl)cn2CCN1Cc1cc(F)ccc1CO [Example 128, 7-(5-chloro-2-((3,3-difluorocyclobutyl)amino)pyridine-4-yl)-2-(5-fluoro-2 (hydroxymethyl)benzyl)-3,4-dihydropyrrolo[1,2-a] pyrazine-1(2H)-one] | 0.89 | 0.65 |  | 
CCNc1ncc(Cl)c(-c2cc3n(c2)C[C@H](COC)N(Cc2cc(F)ccc2CO)C3=O)n1 [Example 131, (R)-7-(5-chloro-2-(ethylamino)pyrimidin-4-yl)-2-(5-fluoro-2-(hydroxymethyl)benzyl)-3-(methoxymethyl)-3,4-dihydropyrrolo[1,2-a] pyrazine-1(2H)-one] | 1.4 | 0.83 |  | 
CCc1ccccc1Nc1ncc(C)c(-c2cc3n(c2)CCN(Cc2cc(F)ccc2CO)C3=O)n1 [Example 132, 7-(2-((2-Ethylphenyl)amino)-5-methylpyrimidin-4-yl)-2-(5-fluoro-2-(hydroxymethyl)benzyl)-3,4-dihydropyrrolo[1,2-a] pyrazine-1(2H)-one] | 0.9 | 0.8 |  | 
Cc1cnc(Nc2cccc3c2OCO3)nc1-c1cc2n(c1)CCN(Cc1cc(F)ccc1CO)C2=O [Example 133, 7-(2-(benzo[D][1,3]dioxocyclopentene-4-ylamino)-5-methylpyrimidin-4-yl)-2-(5-fluoro-2-(hydroxymethyl)benzyl)-3,4-dihydropyrrolo[1,2-a] pyrazine-1(2H)-one] | 0.7 | 0.7 |  | 
Cc1cnc(Nc2ccc3c(cnn3C)c2)nc1-c1cc2n(c1)CCN(Cc1cc(F)ccc1CO)C2=O [Example 134, 2-(5-fluoro-2-(hydroxymethyl)benzyl)-7-(5-methyl-2-((1-methyl-1h-indazole-5-yl)amino)pyrimidin-4-yl)-3,4-dihydropyrrolo[1,2-a] pyrazine-1(2H)-one] | 0.5 | 0.5 |  | 
Cc1cnc(Nc2cccc3c2OCCO3)nc1-c1cc2n(c1)CCN(Cc1cc(F)ccc1CO)C2=O [Example 135, 7-(2-((2,3-dihydrobenzo[b][1,4]dioxane-5-yl)amino)-5-methylpyrimidin-4-yl)-2-(5-fluoro-2-(hydroxymethyl)benzyl)-3,4-dihydropyrrolo[1,2-a] pyrazine-1(2H)-one] | 0.7 | 1.6 |  | 
Cc1cnc(Nc2cccc(C)c2C)nc1-c1cc2n(c1)CCN(Cc1cc(F)ccc1CO)C2=O [Example 136, 7-(2-((2,3-dimethylphenyl)amino)-5-methylpyrimidin-4-yl)-2-(5-fluoro-2-(hydroxymethyl)benzyl)-3,4-dihydropyrrolo[1,2-a] pyrazine-1(2H)-one] | 0.4 | 0.9 |  | 
Cc1cnc(Nc2ccccc2)nc1-c1cc2n(c1)CCN(Cc1cc(F)ccc1CO)C2=O [Example 137, 2-(5-fluoro-2-(hydroxymethyl)benzyl)-7-(5-methyl-2-(phenylamino)pyrimidin-4-yl)-3,4-dihydropyrrolo[1,2-a] pyrazine-1(2H)-one] | 0.6 | 2.7 |  | 
Cc1cnc(Nc2cccc3cnn(C)c23)nc1-c1cc2n(c1)CCN(Cc1cc(F)ccc1CO)C2=O [Example 140, 2-(5-fluoro-2-(hydroxymethyl)benzyl)-7-(5-methyl-2-((1-methyl-1h-indazole-7-yl)amino)pyrimidin-4-yl)-3,4-dihydropylrolo[1,2-a] pyrazine-1(2H)-one] | 1.1 | 1.3 |  | 
Cc1cnc(Nc2cccc3c2cnn3C)nc1-c1cc2n(c1)CCN(Cc1cc(F)ccc1CO)C2=O [Example 141, 2-(5-fluoro-2-(hydroxymethyl)benzyl)-7-(5-methyl-2-((1-methyl-1h-indazole-4-yl)amino)pyrimidin-4-yl)-3,4-dihydropyrrolo[1,2-a] pyrazine-1(2H)-one] | 0.87 | 0.93 |  | 
Cc1cnc(Nc2ccc(OC(C)C)nc2)nc1-c1cc2n(c1)CCN(Cc1cc(F)ccc1CO)C2=O [Example 159, 2-(5-fluoro-2-(hydroxymethyl)benzyl)-7-(2-((6-isopropoxypyridin-3-yl)amino) 5-methylpyrimidin-4-yl)-3,4-dihydropyrrolo[1,2-a] pyrazine-1(2H)-one] | 1.7 | 1.9 |  | 
Cn1nccc1Nc1ncc(C(F)(F)F)c(-c2cc3n(c2)CCN(Cc2cc(F)ccc2CO)C3=O)n1 [Example 164, 2-(5-fluoro-2-(hydroxymethyl)benzyl)-7-(2-((1-methyl-1h-pyrazole-5-yl)amino)-5-(trifluoromethyl)pyrimidin-4-yl)-3,4-dihydropyrrolo[1,2-a] pyrazine-1(2H)-one] | 0.66 |  | 28.9 | 
CC(C)Nc1cc(-c2cc3n(c2)CCN(C(CO)c2cccc(C(F)(F)F)c2)C3=O)c(Cl)cn1 (stereo not drawn) [Example D1, reference compound] |  |  |  | 7330
CC(C)Nc1cc(-c2cnn(C(=O)N[C@H](CO)c3cccc(Cl)c3)c2)c(Cl)cn1 [Example D2, (S)-4-(5-chloro-2-(isopropylamino)pyridin-4-yl)-N′-(1-(3-chlorophenyl)-2-hydroxyethyl)-1H-pyrazole-1-carboxamide, reference compound] |  |  |  | 12200
Cc1cnc(Nc2ccnn2C)nc1-c1c[nH]c(C(=O)NCc2cccc(F)c2)c1 [Example D4, N-(3-fluorobenzyl)-4-(5-methyl-2-((1-methyl-1h-pyrazole-5-yl)amino)pyrimidin-4-yl)-1h-pyrrole-2-formamide, reference compound] |  |  | 252 | 
Cc1cnc(Nc2ccnn2C)nc1-c1cc2n(c1)CCN(Cc1cccc(F)c1)C2=O [Example D5, 2-(3-fluorobenzyl)-7-(5-methyl-2-((1-methyl-1h-pyrazole-5-yl)amino)pyrimidin-4-yl)-3,4-dihydropyrrolo[1,2-a] pyrazine-1(2H)-one, reference compound] |  |  | 93.7 | 
CC(C)Nc1cc(-c2cc3n(c2)CCN(Cc2cccc(F)c2)C3=O)c(Cl)cn1 [Example D8, 7-(5-chloro-2-(isopropylamino)pyridin-4-yl)-2-(3-fluorobenzyl)-3,4-dihydropyrrolo[1,2-a] pyrazine-1(2H)-one, reference compound] |  |  | 1630 | 
